The record followed here is ChEMBL document CHEMBL5143508, “Design, synthesis and biological evaluation of novel o-aminobenzamide derivatives as potential anti-gastric cancer agents in vitro and in vivo” (Eur J Med Chem, 2022).

Each structure is given as a SMILES string. Several values for one entry are separate records, joined by “and”; a condition that tells them apart may be missing. Equal entries are not always repeated. A value given as a limit tells only on which side of the number the result lay.

Data set [1] deals with HGC-27. The experiment in a line: Antiproliferative activity against human HGC-27 cells measured after 24 hrs by […]. The data set is classed as functional, cell-based. The settings on record: HGC-27, 24 h.
A short description of data set [2]: in vitro. Particulars: human, WI-38 cells.
Description: Cytotoxicity against human WI-38 cells assessed as inhibition of cell growth incubated for 72 hrs by MTT assay
A further data set has as its system AGS. The experiment in a line: cells. Particulars: Homo sapiens, 72 h. The data set is classed as functional, cell-based.
Data set [3] can be described thus: in vitro. Particulars: human, GES1 cells.
Description: Cytotoxicity against human GES1 cells assessed as inhibition of cell growth incubated for 72 hrs by MTT assay
Another data set relates to BGC-823. Kind of data set: cells. The settings on record: Homo sapiens, BGC-823, 72 h. The data set is classed as functional, cell-based.
The next data set relates to SGC-7901. Kind of data set: cells. Particulars: Homo sapiens, SGC-7901, 72 h. The data set is classed as functional, cell-based.
Another data set relates to MGC-803. Kind of data set: cells. The data set is classed as functional, cell-based. The settings on record: Homo sapiens, MGC-803, 72 h.
The subject of data set [4] is HGC-27. Kind of data set: cells. The settings on record: Homo sapiens, HGC-27, 72 h. The data set is classed as functional, cell-based.
Description: Cytotoxicity against human HGC-27 cells assessed as inhibition of cell growth incubated for 72 hrs by MTT assay
Data set [5] deals with HGC-27. Kind of data set: Antitumor activity against human HGC-27 cells xenografted in BALB/c mouse assessed as tumor growth inhibition at 150 mg/kg, po bid administered for 19 days. The data set is classed as functional. The settings on record: HGC-27, 456 h, time 19 day, read-out: TGI. (In general: A xenograft is tissue or cells of one species grown in another, often human tumour cells in immunodeficient mice.)

Data set [6] can be described thus: Toxicity in BALB/c mouse xenografted with human HGC-27 cells assessed as RBC level at 150 mg/kg, po bid for 19 days. The settings on record: in vivo, 456 h, time 19 day. The data set is classed as organism-based, Erythrocyte.
A short description of data set [7]: Toxicity in BALB/c mouse xenografted with human HGC-27 cells assessed as lymphocyte level at 150 mg/kg, po bid for 19 days. The data set is classed as organism-based. Particulars: in vivo, 456 h, time 19 day.
A short description of data set [8]: Toxicity in BALB/c mouse xenografted with human HGC-27 cells assessed as mean platelet volume at 150 mg/kg, po bid for 19 days. The data set is classed as organism-based. The settings on record: in vivo, 456 h, time 19 day.
Data set [9] in a line: Toxicity in BALB/c mouse xenografted with human HGC-27 cells assessed as platelet distribution width at 150 mg/kg, po bid for 19 days. The data set is classed as organism-based. The settings on record: in vivo, 456 h, time 19 day.
Data set [10] in a line: Toxicity in BALB/c mouse xenografted with human HGC-27 cells assessed as hematocrit level at 150 mg/kg, po bid for 19 days. The data set is classed as organism-based. The settings on record: in vivo, 456 h, time 19 day.
The nature of data set [11]: Toxicity in BALB/c mouse xenografted with human HGC-27 cells assessed as monocyte level at 150 mg/kg, po bid for 19 days. The data set is classed as organism-based. Particulars: in vivo, 456 h, time 19 day.
A short description of data set [12]: Toxicity in BALB/c mouse xenografted with human HGC-27 cells assessed as mean corpuscular volume at 150 mg/kg, po bid for 19 days. The data set is classed as organism-based. Particulars: in vivo, 456 h, time 19 day.
Data set [13] in a line: Toxicity in BALB/c mouse xenografted with human HGC-27 cells assessed as platelet level at 150 mg/kg, po bid for 19 days. The data set is classed as organism-based. Particulars: in vivo, 456 h, time 19 day.
Data set [14] is described as follows: Toxicity in BALB/c mouse xenografted with human HGC-27 cells assessed as red blood cell distribution width at 150 mg/kg, po bid for 19 days. The data set is classed as organism-based. Particulars: in vivo, 456 h, time 19 day.
Data set [15] is described as follows: Toxicity in BALB/c mouse xenografted with human HGC-27 cells assessed as granulocyte level at 150 mg/kg, po bid for 19 days. The data set is classed as organism-based. Particulars: in vivo, 456 h, time 19 day.

Description for AGS: Cytotoxicity against human AGS cells assessed as inhibition of cell growth incubated for 72 hrs by MTT assay
Description for BGC-823: Cytotoxicity against human BGC-823 cells assessed as inhibition of cell growth incubated for 72 hrs by MTT assay
Description for MGC-803: Cytotoxicity against human MGC-803 cells assessed as inhibition of cell growth incubated for 72 hrs by MTT assay
Description for SGC-7901: Cytotoxicity against human SGC-7901 cells assessed as inhibition of cell growth incubated for 72 hrs by MTT assay

Usually IC50 stands for the midpoint of a concentration-inhibition curve. The low end stands for higher potency, the high end for lower potency. In the case of `C#Cc1ccc(N2CCCC2)c(C(=O)Nc2ccc(CNC(=O)OCc3cccnc3)cc2)c1`, in the data set on HGC-27 [1], the midpoint of inhibition, the IC50, lay at 2.48 µM.
As for `Cc1cccc(C(=O)Nc2ccc(CNC(=O)OCc3cccnc3)cc2)c1N1CCCC1`, the IC50 at 72 h in “in vitro [2]” and in “in vitro [3]” was greater than 100 µM throughout. The IC50 is greater than 100 µM with AGS; greater than 100 µM in the data set with BGC-823; greater than 100 µM with SGC-7901; greater than 100 µM in the data set on MGC-803; 1.03 µM in the data set with HGC-27 [4].
For `COc1ccc(N2CCCC2)c(C(=O)Nc2ccc(CNC(=O)OCc3cccnc3)cc2)c1`, the IC50 at 72 h in the data set “in vitro [2]” was 35.6 µM; in “in vitro [3]”, greater than 100 µM. The IC50 is 25.6 µM in the data set on AGS; greater than 100 µM in the data set with BGC-823; 47.2 µM with SGC-7901; 85.7 µM in the data set with MGC-803; 138 µM in the data set on HGC-27 [4].
Turning to `Cc1ccc(C(=O)Nc2ccc(CNC(=O)OCc3cccnc3)cc2)c(N2CCCC2)c1`, the IC50 at 72 h in the data set “in vitro [2]” and in the data set “in vitro [3]” was greater than 100 µM throughout. Further, the IC50 is greater than 100 µM in the data set on AGS; greater than 100 µM in the data set with BGC-823; 75.2 µM in the data set with SGC-7901; greater than 100 µM in the data set on MGC-803; 1.87 µM in the data set with HGC-27 [4].
As to `O=c1[nH]cc(F)c(=O)[nH]1` [FLUOROURACIL], the IC50 in the data set with AGS turned out to be 23.2 µM; in the data set with BGC-823, 14 µM; in the data set with SGC-7901 it was 69.8 µM; with MGC-803, 62.5 µM; with HGC-27 [4], 27.5 µM. Besides, in “in vitro [3]”, the IC50 at 72 h came out at 38.5 µM.
With `O=C(NCc1ccc(NC(=O)c2cc(Br)ccc2N2CCCC2)cc1)OCc1cccnc1`, the IC50 at 72 h in the data set “in vitro [2]” and in “in vitro [3]” was greater than 100 µM each time. In addition, the IC50 in the data set with AGS is greater than 100 µM; with BGC-823, greater than 100 µM; in the data set with SGC-7901, greater than 100 µM; with MGC-803, 45.7 µM; in the data set on HGC-27 [4], 0.64 µM.
In the case of `O=C(NCc1ccc(NC(=O)c2cccc(F)c2N2CCCC2)cc1)OCc1cccnc1`, the IC50 at 72 h in the data set “in vitro [2]” and in the data set “in vitro [3]” was greater than 100 µM each time. The IC50 is greater than 100 µM in the data set with AGS; greater than 100 µM in the data set on BGC-823; greater than 100 µM in the data set on SGC-7901; greater than 100 µM in the data set on MGC-803; 2.02 µM with HGC-27 [4].
In the case of `O=C(NCc1ccc(NC(=O)c2cc(Cl)ccc2N2CCCC2)cc1)OCc1cccnc1`, the IC50 at 72 h in the data set “in vitro [2]” and in the data set “in vitro [3]” was greater than 100 µM each time. The IC50 in the data set with AGS is greater than 100 µM; in the data set on BGC-823, greater than 100 µM; in the data set with SGC-7901 it was greater than 100 µM; in the data set with MGC-803, 55.5 µM; with HGC-27 [4], 0.75 µM.
Take `CCCCCOC(=O)Nc1nc(=O)n([C@@H]2O[C@H](C)[C@@H](O)[C@H]2O)cc1F` [CAPECITABINE]: the inhibition in vivo at 150 mg/kg in the data set with HGC-27 [5] was 29.9%. Besides, the Activity in [6] is 10.26 10^12/L; in [7], 6.1 10^9/L and 7.45%; in data set [8], 6.95 fL; in data set [9], 17.93; in [10] it was 55.25%; in [11], 1.75 10^9/L and 2.18%. Also, the Activity was 53.73 fL in data set [12]; 799 10^9/L in data set [13]; 15.63% in [14]; 73.83 10^9/L and 90.38% in data set [15].
For the compound `O=C(NCc1ccc(NC(=O)c2ccc(F)cc2N2CCCC2)cc1)OCc1cccnc1`, the IC50 at 72 h in “in vitro [2]” and in the data set “in vitro [3]” was greater than 100 µM each time. For the same compound, the IC50 was greater than 100 µM in the data set on AGS; 74.5 µM in the data set on BGC-823; 56.2 µM in the data set on SGC-7901; 52.1 µM in the data set on MGC-803; 1.84 µM with HGC-27 [4].
For `O=C(NCc1ccc(NC(=O)c2cc(C(F)(F)F)ccc2N2CCCC2)cc1)OCc1cccnc1`, the half-inhibitory concentration (IC50) at 72 h in the data set “in vitro [2]” and in “in vitro [3]” was greater than 100 µM throughout. The IC50 with AGS was greater than 100 µM; in the data set on BGC-823, greater than 100 µM; in the data set on SGC-7901, greater than 100 µM; in the data set on MGC-803, 42.1 µM; with HGC-27 [4], 0.79 µM.
On to `Cc1ccc(N2CCCC2)c(C(=O)Nc2ccc(CNC(=O)OCc3cccnc3)cc2)c1`, for which the IC50 at 72 h in the data set “in vitro [2]” is 40.6 µM; in the data set “in vitro [3]”, greater than 100 µM. The IC50 with AGS was 24.7 µM; in the data set with BGC-823, greater than 100 µM; with SGC-7901, 65.3 µM; in the data set with MGC-803, 19.1 µM; in the data set on HGC-27 [4], 1.65 µM.
Take `O=C(NCc1ccc(NC(=O)c2cc(-c3ccccc3)ccc2N2CCCC2)cc1)OCc1cccnc1`: the IC50 at 72 h in the data set “in vitro [2]” and in the data set “in vitro [3]” was greater than 100 µM throughout. The IC50 in the data set with AGS is greater than 100 µM; in the data set with BGC-823 it was greater than 100 µM; with SGC-7901 it was greater than 100 µM; in the data set with MGC-803 it was 10.5 µM; with HGC-27 [4], 4.34 µM.
On to `C#Cc1cccc(C(=O)Nc2ccc(CNC(=O)OCc3cccnc3)cc2)c1`, for which the IC50 in the data set with HGC-27 [1] is greater than 100 µM.
As to `Nc1ccccc1NC(=O)c1ccc(CNC(=O)OCc2cccnc2)cc1` [ENTINOSTAT], the IC50 is 26.7 µM in the data set on AGS; 27 µM in the data set on BGC-823; greater than 200 µM in the data set with SGC-7901; 58.6 µM with MGC-803; 18.5 µM in the data set with HGC-27 [4]. Inhibition in the data set “in vitro [3]” was half-maximal at 60.2 µM (IC50 at 72 h).
